Test results taken from patent publication US20180110795A1, “COMPOSITIONS AND METHODS FOR DETECTING AND TREATING PERIODONTAL DISEASE” (THE FORSYTH INSTITUTE, priority 2015, published 2018).

Experiments:
Assay type in all cases: cell-based
S. Genus probe 1 = test: Active fraction of microbes by rRNA analysis in liquid culture of oral plaque; details: TPP at concentrations as low as 25 mM
From the text: (§1) Oral plaque containing Streptococcus sanguinis was obtained from a human subject and cultured in liquid culture in the presence or absence of TPP. S. sanguinis is a gram positive bacteria that binds to the surface if the teeth, where it acts as a tether for the attachment of other bacteria that form dental plaque, and contributes to the development of caries and periodontal disease. S. Sangunis has all of the genes required for anaerobic cobalamin biosynthesis.
(§2) Microbes exist in a range of metabolic states (e.g., dormant, active and growing) and analysis of ribosomal RNA (rRNA) is frequently employed to identify the ‘active’ fraction of microbes in samples. […] This is of particular interest given that other bacterial species may utilize and or depend on the cobalamin synthesized by S. Sanguinis, thus making this species a keystone esential to maintain a mature biofilm.

Solobacterium moorei = test: as above; details: TPP at concentrations as low as 25 mM
From the text: as §1, §2

S. intermedius = test: as above; details: TPP at concentrations as low as 25 mM
From the text: as §1, §2

Streptococcus sanguinis = test: as above; details: three hours of incubation
From the text: as §1, §2

Rothia dentocariosa = test: as above; details: TPP at concentrations as low as 25 mM
From the text: as §1, §2

oral microbial community = test: Principal component analysis of active community composition by 16S rRNA genes from cultures of plaque; details: cultures of plaque from a human subject, samples at 0, 3, 9 and 18 hours, all concentrations
Procedure: Principal component analysis was used to analyze changes in oral microbial community composition. Results of an analysis of the active community composition isolated from a human subject was carried out by analysis of 16S rRNA genes from cultures of plaque. The panel of species identified included 500 different species. Samples from the culture were taken at 0, 3, 9 and 18 hours.

oral plaque = test: Plaque bacteria plated on blood agar and cultured with or without TPP; details: plaque bacteria from four human subjects on blood agar, various concentrations of TPP
Procedure: Dental plaque is a biofilm that builds up on teeth and contains bacteria associated with cavities, gingivitis, and periodontitis. Plaque samples were obtained from four human subjects. Plaque bacteria from each subject was plated on blood agar and cultured in the presence or absence of various concentrations of Sodium tripolyphospate (TPP), which inhibits Cob(I)alamin adenosyltransferase.

O=P(O)(O)OP(=O)(O)OP(=O)(O)O [TPP, sodium tripolyphosphate]
activity of S. Genus probe 1 (S. Genus probe 1): significantly reduced
activity of Solobacterium moorei (Solobacterium moorei): significantly reduced
activity of S. intermedius (S. intermedius): significantly reduced
fraction of active S. Sanguinis vs control with no TPP (Streptococcus sanguinis; 25 mM TPP): significantly lower
fraction of active S. Sanguinis vs control with no TPP (Streptococcus sanguinis; 50 mM TPP): significantly lower
activity of Rothia dentocariosa (Rothia dentocariosa): significantly reduced
change in composition of bacterial communities (oral microbial community): affected all of the bacterial communities in similar ways at all concentrations
oral plaque growth (oral plaque): completely inhibited oral plaque growth in a dose dependent manner
